From patent US20100056565A1, “Heterocyclic Derivatives as M3 Muscarinic Receptors” (priority 2007, published 2010) come the findings set out here.

Molecules are shown by their SMILES. Where a name gives a salt, the structure may show the parent alone. Bounds are passed on as bounds.

The target of this assay is T1, Recombinant human M3 receptor (Homo sapiens, UniProt P20309).
T1 construct: expressed in transfected cells; host or cells: CHO-K1 cells (membranes)
T1 sequence (P20309 whole entry): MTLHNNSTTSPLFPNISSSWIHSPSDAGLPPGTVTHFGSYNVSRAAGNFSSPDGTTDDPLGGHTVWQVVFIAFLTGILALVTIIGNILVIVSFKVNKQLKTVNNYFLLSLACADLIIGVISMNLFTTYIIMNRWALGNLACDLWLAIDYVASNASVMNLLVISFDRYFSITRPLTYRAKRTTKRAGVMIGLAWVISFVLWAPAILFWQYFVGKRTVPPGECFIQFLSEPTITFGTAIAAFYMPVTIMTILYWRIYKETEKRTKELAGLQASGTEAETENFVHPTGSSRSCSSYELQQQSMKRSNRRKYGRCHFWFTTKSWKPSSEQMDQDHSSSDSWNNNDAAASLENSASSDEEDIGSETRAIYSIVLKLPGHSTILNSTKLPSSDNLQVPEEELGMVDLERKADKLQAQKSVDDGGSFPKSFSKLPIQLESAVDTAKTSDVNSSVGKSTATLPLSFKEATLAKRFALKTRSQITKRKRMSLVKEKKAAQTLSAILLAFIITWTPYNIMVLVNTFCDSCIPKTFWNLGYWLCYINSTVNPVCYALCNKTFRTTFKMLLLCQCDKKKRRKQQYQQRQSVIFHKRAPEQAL
As to the kind of experiment: biochemical. In kind it is binding. The settings on record: SPA format; read-out: M3 Ki (SPA format). The protocol:
Recombinant human M3 receptor was expressed in CHO-K1 cells. Cell membranes were prepared and binding of [3H]-N-methyl scopolamine ([3H]-NMS) and compounds was assessed by a scintillation proximity assay (SPA). The incubation time was 16 hours at room temperature in the presence of 1% (v/v) DMSO. The assay was performed in white 96 well clear-bottomed NBS plates (Corning). Prior to the assay, the CHO cell membranes containing M3 receptor were coated onto SPA WGA (Wheat germ agglutinin) beads (GE Healthcare). Non specific binding was determined in the presence of 1 μM Atropine.
Radioactivity was measured on a Microbeta scintillation counter (PerkinElmer) using a 3H protocol with a 2 minutes per well read time. […] Concentration dependent inhibition of [3H]-NMS binding by compounds was expressed as pIC50.
With `O=C(N[C@@H]1C[N+]2(Cc3cnc([C@](O)(c4ccccc4)C4CCCCC4)o3)CCC1CC2)c1ccccc1` [Example 15, (S)-3-Benzoylamino-1-[2-((R)-cyclohexyl-hydroxy-phenyl-methyl)-oxazol-5-ylmethyl]-1-azonia-bicyclo[2.2.2]octane; formate], the Ki – broadly, the equilibrium dissociation constant of an inhibitor or competing ligand from its target – was less than 5 nM. The same measure for `OC(c1ccccc1)(c1ccccc1)c1ncc(C[N+]23CCC(CC2)C(CCc2ccccc2)C3)o1` (centres unmarked) [Example 37, 1-[2-(Hydroxy-diphenyl-methyl)-oxazol-5-ylmethyl]-3-phenethyl-1-azonia-bicyclo[2.2.2]octane; bromide]: less than 5 nM; for `O[C@](c1ccccc1)(c1ncc(C[N+]23CCC(COCc4ccccc4)(CC2)CC3)o1)C1CCCCC1` [Example 47, 4-Benzyloxymethyl-1-[2-((R)-cyclohexyl-hydroxy-phenyl-methyl)-oxazol-5-ylmethyl]-1-azonia-bicyclo[2.2.2]octane; bromide]: greater than 20 nM; for `OC(c1ccccc1)(c1ccccc1)c1noc(C[N+]23CCC(CC2)[C@@H](Oc2ccsc2)C3)n1` [Example 115, (R)-1-[3-(Hydroxy-diphenyl-methyl)-[1,2,4]oxadiazol-5-ylmethyl]-3-(thiophen-3-yloxy)-1-azonia-bicyclo[2.2.2]octane; chloride]: less than 5 nM. As for `OC(c1ccccc1)(c1ccccc1)c1noc(C[N+]23CCC(CC2)[C@@H](Oc2ccc(Cl)cc2)C3)n1` [Example 136, (R)-3-(4-Chloro-phenoxy)-1-[3-(hydroxy-diphenyl-methyl)-[1,2,4]oxadiazol-5-ylmethyl]-1-azonia-bicyclo[2.2.2]octane; chloride], the inhibitory constant (Ki) was less than 5 nM.

Consider `O[C@](c1ccccc1)(c1ncc(C[N+]23CCC(CC2)[C@@H](OCc2ccsc2)C3)o1)C1CCCCC1` [Example 46, (R)-1-[2-((A)-Cyclohexyl-hydroxy-phenyl-methyl)-oxazol-5-ylmethyl]-3-(thiophen-3-ylmethoxy)-1-azonia-bicyclo[2.2.2]octane; bromide], for which the Ki was less than 5 nM. For the compound `O[C@](c1ccccc1)(c1ncc(C[N+]23CCC(CC2)[C@@H](Oc2cccc(Cl)c2)C3)o1)C1CCCCC1` [Example 65, (R)-3-(3-Chloro-phenoxy)-1-[2-((R)-cyclohexyl-hydroxy-phenyl-methyl)-oxazol-5-ylmethyl]-1-azonia-bicyclo[2.2.2]octane; bromide], the Ki was less than 5 nM. `OC(c1ccccc1)(c1cc(C[N+]23CCC(CC2)C(CSc2ccccc2)C3)on1)C1CCCCC1` (single isomer, unassigned) [Example 123]: the Ki is less than 5 nM. Consider `OC(c1ccccc1)(c1ccccc1)c1noc(C[N+]23CCC(CC2)[C@@H](Oc2ccc4c(c2)OCO4)C3)n1` [Example 135, (R)-3-(Benzo[1,3]dioxol-5-yloxy)-1-[3-hydroxy-diphenyl-methyl)-[1,2,4]oxadiazol-5-ylmethyl]-1-azonia-bicyclo[2.2.2]octane; chloride], for which the Ki was less than 5 nM.

As for `OC(c1ccccc1)(c1ccccc1)c1noc(C[N+]23CCC(CC2)[C@@H](Oc2ccccc2)C3)n1` [Example 103, (R)-1-[3-(Hydroxy-diphenyl-methyl)-[1,2,4]oxadiazol-5-ylmethyl]-3-phenoxy-1-azonia-bicyclo[2.2.2]octane; chloride], the inhibition constant (Ki) is less than 5 nM. The same measure for `C/C=C/CO[C@H]1C[N+]2(Cc3cnc([C@](O)(c4ccccc4)C4CCCCC4)o3)CCC1CC2` [Example 113, (R)-3-[((E)-But-2-enyl)oxy]-1-[2-((R)-cyclohexyl-hydroxy-phenyl-methyl)-oxazol-5-ylmethyl]-1-azonia-bicyclo[2.2.2]octane; bromide]: less than 5 nM; for `OC(c1ccccc1)(c1ncc(C[N+]23CCC(CC2)[C@@H](OCc2ccccc2)C3)o1)C1CCC1` (single isomer, unassigned) [Example 50, formate]: less than 5 nM. On to `OC(c1ccccc1)(c1ncc(C[N+]23CCC(CC2)[C@@H](OCc2ccccc2)C3)o1)C1CCCCCCC1` (single isomer, unassigned) [Example 48, formate], for which the Ki was less than 5 nM. As for `O[C@](c1ccccc1)(c1ncc(C[N+]23CCC(CC2)C(Cc2ccccc2)C3)o1)C1CCCCC1` (stereo partly drawn) [Example 61, 3-benzyl-1-[2-((R)-cyclohexyl-hydroxy-phenyl-methyl)-oxazol-5-ylmethyl]-1-azonia-bicyclo[2.2.2]octane; formate], the Ki was less than 5 nM.

Turning to `OC(c1ccccc1)(c1cc(C[N+]23CCC(CC2)[C@@H](OCc2ccc(F)cc2)C3)on1)C1CCCCC1` (single isomer, unassigned) [Example 54], the Ki was less than 5 nM. Turning to `OC(c1ccccc1)(c1ccccc1)c1ncc(C[N+]23CCC(CC2)[C@@H](Oc2ccc(F)c(Cl)c2)C3)o1` [Example 76, (R)-3-(3-chloro-4-fluoro-phenoxy)-1-[2-(hydroxy-diphenyl-methyl)-oxazol-5-ylmethyl]-1-azonia-bicyclo[2.2.2]octane; bromide], the inhibition constant Ki is less than 5 nM.

Take `O[C@](c1ccccc1)(c1ncc(C[N+]23CCC(CC2)[C@@H](OCc2ccc(Cl)c(Cl)c2)C3)o1)C1CCCCC1` [Example 22, (R)-1-[2-((R)-cyclohexyl-hydroxy-phenyl-methyl)-oxazol-5-ylmethyl]-3-(3,4-dichloro-benzyloxy)-1-azonia-bicyclo[2.2.2]octane; formate]: the Ki was less than 5 nM. Next, `OC(c1ccccc1)(c1ccccc1)c1noc(C[N+]23CCC(CC2)[C@@H](Oc2cccc(Cl)c2)C3)n1` [Example 117, (R)-3-(3-Chloro-phenoxy)-1-[3-(hydroxy-diphenyl-methyl)-[1,2,4]oxadiazol-5-ylmethyl]-1-azonia-bicyclo[2.2.2]octane; chloride]: less than 5 nM; `O[C@](c1ccccc1)(c1ncc(C[N+]23CCC(COc4ccccc4)(CC2)CC3)o1)C1CCCCC1` [Example 55, 1-[2 ((R)—Cyclohexyl-hydroxy-phenyl-methyl)-oxazol-5-ylmethyl]-4-phenoxymethyl-1-azonia-bicyclo[2.2.2]octane; bromide]: less than 5 nM; `O[C@](c1ccccc1)(c1ncc(C[N+]23CCC(CC2)[C@@H](Oc2ccc(Cl)cc2)C3)o1)C1CCCCC1` [Example 64, (R)-3-(4-Chloro-phenoxy)-1-[2-((R)-cyclohexyl-hydroxy-phenyl-methyl)-oxazol-5-ylmethyl]-1-azonia-bicyclo[2.2.2]octane; bromide]: less than 5 nM. Next, `O=C(N[C@H]1C[N+]2(Cc3cnc([C@](O)(c4ccccc4)C4CCCCC4)o3)CCC1CC2)c1ccccc1` [Example 13, (R)-3-benzoylamino-1-[2-((R)-cyclohexyl-hydroxy-phenyl-methyl)-oxazol-5-ylmethyl]-1-azonia-bicyclo[2.2.2]octane; formate]: greater than 20 nM; `OC(c1ccccc1)(c1ccccc1)c1noc(C[N+]23CCC(CC2)[C@@H](SC2CCCCC2)C3)n1` [Example 138, (R)-3-Cyclohexylsulfanyl-1-[3-(hydroxy-diphenyl-methyl)-[1,2,4]oxadiazol-5-ylmethyl]-1-azonia-bicyclo[2.2.2]octane; chloride]: less than 5 nM; `OC(c1ccccc1)(c1ccccc1)c1noc(C[N+]23CCC(CC2)[C@@H](Oc2cccc(F)c2)C3)n1` [Example 94, (R)-3-(3-Fluoro-phenoxy)-1-[3-(hydroxy-diphenyl-methyl)-[1,2,4]oxadiazol-5-ylmethyl]-1-azonia-bicyclo[2.2.2]octane; chloride]: less than 5 nM.

For `O=C(N[C@@H]1C[N+]2(Cc3cnc([C@](O)(c4ccccc4)C4CCCCC4)o3)CCC1CC2)c1ccc(Cl)cc1` [Example 19, (S)-3-(4-chloro-benzoylamino)-1-[2-((R)-cyclohexyl-hydroxy-phenyl-methyl)-oxazol-5-ylmethyl]-1-azonia-bicyclo[2.2.2]octane; formate], the inhibition constant (Ki) was less than 5 nM. `O[C@](c1ccccc1)(c1ncc(C[N+]23CCC(CC2)[C@H](COc2ccccc2)C3)o1)C1CCCCC1` [Example 24, (S)-1-[2-((R)—Cyclohexyl-hydroxy-phenyl-methyl)-oxazol-5-ylmethyl]-3-phenoxymethyl-1-azonia-bicyclo[2.2.2]octane; bromide]: the inhibition constant Ki was less than 5 nM. Turning to `C=CCO[C@H]1C[N+]2(Cc3cnc([C@](O)(c4ccccc4)C4CCCCC4)o3)CCC1CC2` [Example 51, (R)-3-allyloxy-1-[2-((R)-cyclohexyl-hydroxy-phenyl-methyl)-oxazol-5-ylmethyl]-1-azonia-bicyclo[2.2.2]octane; formate], the Ki was less than 5 nM. Consider `O[C@](c1ccccc1)(c1nnc(C[N+]23CCC(CC2)[C@H](CSc2ccccc2)C3)o1)C1CCCCC1` [Example 121, (S)-1-[5-((R)—Cyclohexyl-hydroxy-phenyl-methyl)-[1,3,4]oxadiazol-2-ylmethyl]-3-phenylsulfanylmethyl-1-azonia-bicyclo[2.2.2]octane; bromide], for which the Ki is less than 5 nM. Consider `O[C@@](c1ccccc1)(c1ncc(C[N+]23CCC(CC2)CC3)o1)C1CCCCC1` [Example 5, 1-[2-((S))-Cyclohexyl-hydroxy-phenyl-methyl)-oxazol-5-ylmethyl]-1-azonia-bicyclo[2.2.2]octane bromide], for which the Ki was less than 5 nM. `O[C@](c1ccccc1)(c1ncc(C[N+]23CCC(CC2)[C@@H](OCc2ccccc2F)C3)o1)C1CCCCC1` [Example 52, (R)-1-[2-((R)-cyclohexyl-hydroxy-phenyl-methyl)-oxazol-5-ylmethyl]-3-(2-fluoro-benzyloxy)-1-azonia-bicyclo[2.2.2]octane; formate]: the inhibition constant (Ki) was less than 5 nM.
